This is an account of results in patent publication US8283373B2, “Inhibitors of cytosolic phospholipase A2” (Pfizer Inc., priority 2005, dated 2012).

Assay [1] relates to experimental autoimmune encephalomyelitis (EAE). Put plainly: Experimental autoimmune encephalomyelitis (EAE) model of multiple sclerosis. The format is in vivo, mouse. As to the method: Six groups of B6 mice were immunized with MOG/CFA and injected with pertussis toxin to induce experimental autoimmune encephalomyelitis (EAE), an animal model of Multiple sclerosis. Three groups of mice were treated with vehicle, 4-{3-[1-benzhydryl-5-chloro-2-(2-{[(2,6-dimethylbenzyl)sulfonyl]amino}ethyl)-1H-indol-3-yl]propyl}benzoic acid (Compound A), or 4-{2-[1-benzhydryl-5-chloro-2-(2-{[(3,4-dichlorobenzyl)sulfonyl]amino}-ethyl)-1H-indol-3-yl]ethoxy}benzoic acid (Compound B) from the day of Immunization (orally, 100 mg/kg, twice/day). Another three groups of mice were treated with vehicle, Compound A or Compound B starting on the day of EAE onset (day 15) (orally, 100 mg/kg, twice/day). […] The results are shown in the Table below, wherein mean clinical score is a mean of clinical evaluation of each animal for that particular day.
Animals are Scored as Follows:
• 0—no clinical signs of EAE (no paralysis) • 1—paralysis of tail • 2—paralysis of tail and partial hind leg paralysis • 3—paralysis of tail and complete hind leg paralysis • 4—paralysis of tail, complete hind leg paralysis and a partial front leg paralysis • 5—moribund animal (all four limbs paralyzed, lack of responsiveness, these mice were immediately euthanized).
In addition, the compounds of Examples 14 and 25 were also found to be efficacious in the mouse experimental autoimmune encephalomyelitis (EAE) model of multiple sclerosis. As shown by the data in the Table below, these compounds led to a delayed onset of disease and reduced severity of disease when administered orally in doses as low as 2.5 mg/kg.

The test system of assay [2] is primary dopaminergic neurons. Briefly: MPP+ exposure in dopaminergic neurons. The format is cell-based, rat. The conditions noted are these: 10 μM MPP+ 60 minutes, control 100, MPP+ alone 56.6. As to the method: Primary dopaminergic neurons were isolated from E15 rat embryos as described in Pong K., et al., (1997) J. Neurochem. 69 986-994. Briefly, the ventral mesencephalon was isolated and tissue was pooled in ice-cold phosphate buffer saline (PBS) without Ca^2+ and Mg^2+. The tissue was transferred to an enzymatic dissociation media containing 20 IU/ml papain in Earle's balanced salt solution (Worthington Biochemical, Freehold, N.J.) and incubated for 30 minutes at 37° C. After enzymatic dissociation, the papain solution was aspirated and the tissue mechanically triturated with a fire-polished Pasteur pipette in complete media [Neurobasal Medium with B-27 supplement (Gibco, Grand Island, N.Y.), penicillin/streptomycin, aphidicolin, glutamate] containing 2,000 IU/ml DNase and 10 mg/ml ovomucoid protease inhibitor. Single-cell suspensions in complete media were plated on pre-coated poly-L-ornithine/laminin 24-well plates (Becton-Dickinson, Bedford, Mass.) at a density of 5.0×10^5 cells/well. Cells were maintained for one week prior to experimentation.
Cultures were exposed to 10 μM MPP^+ for 60 minutes. After the exposure, fresh media was exchanged and fresh compound was added. Dopaminergic neuron viability was determined 24 hours later by measuring ^3H-dopamine uptake as described in Pong et al., 1997, supra.

For the next assay, the system named is CFA-induced hyperalgesia. Briefly: CFA-induced hyperalgesia model. The note with it: 6 hours after CFA. The format is in vivo, rat. An excerpt:
The sensitivity of peripheral sensory neurons can be enhanced such that they respond to both noxious and non-noxious stimuli resulting in chronic pain (See Julius, D. et al., Nature. 2001; 413:203; Woolf, C. J., et al., Science. […]; 288:1765). Prostaglandins and leukotrienes at the site of inflammation and tissue damage are partially responsible for this potentiation of the pain response. Prostaglandins promote the phosphorylation of ion channels, increasing the excitability and lowering the pain threshold of sensory neurons. Analogously, leukotriene B4 and related arachidonate metabolites of 12-LO bind to and activate the capsaicin receptor (or VR1) ion channel on neurons that respond to heat and low pH (See Piomelli D., TRENDS in Pharmacological Sciences, January 2001; 22(1):17-29). The effect of the compound of Example 10 was measured in the CFA-induced hyperalgesia model, and lipid mediator production was measured at peripheral and central sites.
The animals were dosed with vehicle, the compound of Example 10, naproxen or celecoxib, and then CFA was immediately injected into the hind footpad. To assess hyperalgesia, pressure was applied to the left hind paw at a slow and constant rate using a digital force gauge. Measurements were taken at 0 and 6 hours. The application of the force was stopped when the animal vocalized, or struggled. Readings were taken prior to dosing and CFA injection, and repeated six hours after the CFA injection. Two independent experiments were run and the data were analyzed separately.
The paws were collected at the end of each experiment (6 hours) and the levels of PGE2, LTB4 and TXB2 were measured in the exudates.

Consider `O=C(O)c1ccc(OCCc2c(CCNS(=O)(=O)Cc3ccc(Cl)c(Cl)c3)n(C(c3ccccc3)c3ccccc3)c3ccc(Cl)cc23)cc1` [Compound B, 4-{2-[1-benzhydryl-5-chloro-2-(2-{[(3,4-dichlorobenzyl)sulfonyl]amino}-ethyl)-1H-indol-3-yl]ethoxy}benzoic acid], for which the mean clinical score in assay [1] (100 mg/kg orally twice/day from EAE onset (day 15), day 11 after immunization) is 0; in assay [1] (100 mg/kg orally twice/day from EAE onset (day 15), day 12 after immunization), 0; in assay [1] (100 mg/kg orally twice/day from EAE onset (day 15), day 13 after immunization) it was 0; in assay [1] (100 mg/kg orally twice/day from EAE onset (day 15), day 14 after immunization) it was 0; in assay [1] (100 mg/kg orally twice/day from EAE onset (day 15), day 15 after immunization), 0.10; in assay [1] (100 mg/kg orally twice/day from EAE onset (day 15), day 16 after immunization), 0.45. For the same compound, the mean clinical score came to 0.80 in assay [1] (100 mg/kg orally twice/day from EAE onset (day 15), day 17 after immunization); 1.05 in assay [1] (100 mg/kg orally twice/day from EAE onset (day 15), day 18 after immunization); 1.10 in assay [1] (100 mg/kg orally twice/day from EAE onset (day 15), day 19 after immunization); 1.00 in assay [1] (100 mg/kg orally twice/day from EAE onset (day 15), day 20 after immunization); 1.20 in assay [1] (100 mg/kg orally twice/day from EAE onset (day 15), day 21 after immunization); 1.10 in assay [1] (100 mg/kg orally twice/day from EAE onset (day 15), day 22 after immunization). For the same compound, the mean clinical score is reported as 1.40 in assay [1] (100 mg/kg orally twice/day from EAE onset (day 15), day 23 after immunization); 1.35 in assay [1] (100 mg/kg orally twice/day from EAE onset (day 15), day 24 after immunization); 1.25 in assay [1] (100 mg/kg orally twice/day from EAE onset (day 15), day 25 after immunization); 1.40 in assay [1] (100 mg/kg orally twice/day from EAE onset (day 15), day 26 after immunization); 1.55 in assay [1] (100 mg/kg orally twice/day from EAE onset (day 15), day 27 after immunization); 0 in assay [1] (100 mg/kg orally twice/day from day of immunization (Day 1), day 11 after immunization). Further, the mean clinical score worked out at 0 in assay [1] (100 mg/kg orally twice/day from day of immunization (Day 1), day 12 after immunization); 0 in assay [1] (100 mg/kg orally twice/day from day of immunization (Day 1), day 13 after immunization); 0 in assay [1] (100 mg/kg orally twice/day from day of immunization (Day 1), day 14 after immunization); 0 in assay [1] (100 mg/kg orally twice/day from day of immunization (Day 1), day 15 after immunization); 0 in assay [1] (100 mg/kg orally twice/day from day of immunization (Day 1), day 16 after immunization); 0.06 in assay [1] (100 mg/kg orally twice/day from day of immunization (Day 1), day 17 after immunization). For the same compound, the mean clinical score in assay [1] (100 mg/kg orally twice/day from day of immunization (Day 1), day 18 after immunization) is recorded as 0.06; in assay [1] (100 mg/kg orally twice/day from day of immunization (Day 1), day 19 after immunization), 0.11; in assay [1] (100 mg/kg orally twice/day from day of immunization (Day 1), day 20 after immunization), 0.39; in assay [1] (100 mg/kg orally twice/day from day of immunization (Day 1), day 21 after immunization) it was 0.44; in assay [1] (100 mg/kg orally twice/day from day of immunization (Day 1), day 22 after immunization), 0.50; in assay [1] (100 mg/kg orally twice/day from day of immunization (Day 1), day 23 after immunization) it was 0.67. Besides, the mean clinical score was determined as 0.56 in assay [1] (100 mg/kg orally twice/day from day of immunization (Day 1), day 24 after immunization); 0.56 in assay [1] (100 mg/kg orally twice/day from day of immunization (Day 1), day 25 after immunization); 0.56 in assay [1] (100 mg/kg orally twice/day from day of immunization (Day 1), day 26 after immunization); 0.72 in assay [1] (100 mg/kg orally twice/day from day of immunization (Day 1), day 27 after immunization). Besides, the “prevention of EAE / reduction of clinical severity” value in assay [1] (administered from the time of immunization, or in mice with or close to EAE) is listed as “can prevent EAE”. The “dopaminergic neuron viability (3H-dopamine uptake), Avg.” value in assay [2] (0.3 μM) was 74; in assay [2] (1 μM) it was 71.6; in assay [2] (3 μM) it was 78.6; in assay [2] (10 μM) it was 83.2.

On to `COc1ccc2cc([C@H](C)C(=O)O)ccc2c1` [naproxen, reference compound], for which, in the assay on CFA-induced hyperalgesia, the “LTB4 levels in paw exudates” value is listed as “increased” and the “TXB2 levels in paw exudates” value is “greater than the inhibition with celecoxib”. Further, the “PGE2 levels in paw exudates” value in the assay with CFA-induced hyperalgesia (Example 10 at 25 mg/kg) was “significantly inhibited”.
